Experimental data taken from PubChem BioAssay (NCI).
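These data come from cells grown in 96-well plates and exposed to compound for 48 hours at five concentrations. Definition used: TGI = concentration required for complete inhibition of growth.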

Experiments:
Assay in all cases: growth of human tumour cells (NCI), 48 h
A498 renal = tested on: A498 renal
CAKI-1 renal = tested on: CAKI-1 renal
CCRF-CEM leukemia = tested on: CCRF-CEM leukemia
HCC-2998 colon = tested on: HCC-2998 colon
HL-60(TB) leukemia = tested on: HL-60(TB) leukemia
IGROV1 ovarian = tested on: IGROV1 ovarian
KM12 colon = tested on: KM12 colon
M14 melanoma = tested on: M14 melanoma
MDA-MB-231 breast = tested on: MDA-MB-231 breast
NCI-H460 lung = tested on: NCI-H460 lung
NCI/ADR-RES ovarian = tested on: NCI/ADR-RES ovarian
RXF 393 renal = tested on: RXF 393 renal
SF-268 CNS = tested on: SF-268 CNS
SF-539 CNS = tested on: SF-539 CNS
SK-MEL-28 melanoma = tested on: SK-MEL-28 melanoma
SNB-19 CNS = tested on: SNB-19 CNS
SW-620 colon = tested on: SW-620 colon
TK-10 renal = tested on: TK-10 renal
U251 CNS = tested on: U251 CNS
UO-31 renal = tested on: UO-31 renal

Row | Structure (SMILES) | TGI (A498 renal) [µM] | TGI (CAKI-1 renal) [µM] | TGI (CCRF-CEM leukemia) [µM] | TGI (HCC-2998 colon) [µM] | TGI (HL-60(TB) leukemia) [µM] | TGI (IGROV1 ovarian) [µM] | TGI (KM12 colon) [µM] | TGI (M14 melanoma) [µM] | TGI (MDA-MB-231 breast) [µM] | TGI (NCI-H460 lung) [µM] | TGI (NCI/ADR-RES ovarian) [µM] | TGI (RXF 393 renal) [µM] | TGI (SF-268 CNS) [µM] | TGI (SF-539 CNS) [µM] | TGI (SK-MEL-28 melanoma) [µM] | TGI (SNB-19 CNS) [µM] | TGI (SW-620 colon) [µM] | TGI (TK-10 renal) [µM] | TGI (U251 CNS) [µM] | TGI (UO-31 renal) [µM]
1 | CC(=O)Nc1ccc2nc(-c3ccccn3)c(-c3ccccn3)nc2c1 | > 100 | > 100 | > 100 | > 100 | > 100 | > 100 | > 100 | > 100 | > 100 | > 100 | > 100 | > 100 | > 100 | > 100 | > 100 | > 100 | > 100 | > 100 | > 100 | > 100
2 | O=[N+]([O-])C(/C=C(\Cl)[N+](=O)[O-])=C1Nc2ccccc2N1 | 70.4 | 69.4 | 97.5 | > 100 | > 100 | > 100 | > 100 | > 100 | > 100 | > 100 | > 100 | 95.9 | > 100 | 93.3 | > 100 | > 100 | > 100 | > 100 | > 100 | > 100
3 | COc1ccc([N+](=O)[O-])c2c(NCCCN(C)C)ccnc12 | 5.18 | 42.9 | 61.9 | 6.95 | 22.8 | 4.85 | 24.2 | 20.8 | > 73.8 | 5.63 | 42.2 | 8.32 | 28.9 | 17 | > 100 | 28.2 | 32.4 | 70.5 | 23.6 | 17.3
